This is an account of results in US8273778B2, “Inhibitors of UDP-galactopyranose mutase thwart mycobacterial growth” (Wisconsin Alumni Research Foundation, priority 2008, dated 2012).

A word on the Ki: it is a measure of affinity in units of concentration, obtained from inhibition or displacement.

One experiment concerns the target UGMmyco (Mycobacterium tuberculosis, UniProt P9WIQ1). The experiment in a line: HPLC assay of UGMmyco conversion of UDP-galactofuranose to UDP-galactopyranose (inhibition, kinetics). In kind it is biochemical. Conditions: initial rates at various UDP-Galf, 25 or 50 μM inhibitor, 11 nM UGMmyco, pH 7. The procedure: UGMmyco inhibition was assessed using a previously described HPLC assay to measure the extent of enzymatic conversion of UDP-galactofuranose to UDP-galactopyranose. (Carlson, E. E.; May, J. F.; Kiessling, L. L. Chem. Biol. 2006, 13, 825-837.)
The relative activity of UGMmyco in the presence of DMSO alone was compared to that in the presence of 50 μM of selected aminothiazoles. Enzymatic reaction conditions were as follows: 50 μM UDP-Galf, 4 μM UGMmyco and 20 mM DTT in 4% DMSO v/v. The mean activities of UGMmyco in the presence of the aminothiazoles are presented in order of decreasing binding affinities to highlight the relationship between enzyme inhibition and binding affinity.
The inhibition curves look similar to the binding curves depicted in FIGS. 5A and 5B. […] In the graphs of these figures, conversion is the amount of UDP-Galp formed divided by the amount of total UDP-Gal (UDP-Galp+UDP-Galf). The data were fit to the equation as previously described. (Soltero-Higgin, M.; Carlson, E. E.; Phillips, J. H.; Kiessling, L. L., Identification of inhibitors for UDP-galactopyranose mutase. J. Am. Chem. Soc. 2004, 126, 10532-10533.)
For inhibitor kinetic assays, the initial rate of UGMmyco was determined at various UDP-Galf concentrations in the presence of either DMSO alone (4% v/v), 25 μM inhibitor, or 50 μM inhibitor. […] Product formation was analyzed using a HPLC-based assay. […]

Experiment [1] concerns the target T1, UGM from Mycobacterium tuberculosis (UGMmyco) (Mycobacterium tuberculosis, UniProt P9WIQ1). The experiment in a line: Fluorescence polarization binding / inhibition assay, UGMmyco. The protocol: (§1) Serial dilutions of dialyzed UGM (maximum concentration was typically 30 μM) was incubated with 15 nM of fluorescent compounds 5a-5f, 6 or 11 in 50 mM sodium phosphate buffer, pH 7.0 at 25° C. Final volumes were 30 μL in 384 well black microtiter plates (Costar). Fluorescence polarization was analyzed using a Wallac EnVision plate reader. Data were fit to y=m1+((m2−m1)*x^m3)/(m4^m3+x^m3); m2=maximum FP signal, m1=minimum FP signal, m3=slope, m4=binding constant (KaleidaGraph, Synergy Software).
The fluorescence polarization inhibition assay was performed as previously described (22). Reactions contained 580 nM UGMmyco or 500 nM UGMkleb and 15 nM of the fluorescent probe 5c in 50 mM sodium phosphate buffer, pH 7.0 at 25° C. Final volumes were 30 μL in 384 well black microtiter plates (Costar). Serial dilutions of UDP, 4d or 7 were added to the wells. Fluorescence polarization was analyzed using a Wallac EnVision plate reader. Data were fit to y=m1+((m2−m1)*x^m3)/(m4^m3+x^m3); m2=maximum FP signal, m1=minimum FP signal, m3=slope, m4=apparent binding constant (KaleidaGraph, Synergy Software). […]. FIGS. 13A and 13B are graphs illustrating determination of Kd for compound II for UGMmyco (FIG. 13A) and UGMkleb (FIG. 13B).

Experiment [2] has as its target T2, UGM from Klebsiella pneumoniae (UGMkleb) (Klebsiella pneumoniae, UniProt Q48485). Briefly: Fluorescence polarization binding / inhibition assay, UGMkleb. The procedure:
as §1
The fluorescence polarization inhibition assay was performed as previously described (22). Reactions contained 580 nM UGMmyco or 500 nM UGMkleb and 15 nM of the fluorescent probe 5c in 50 mM sodium phosphate buffer, pH 7.0 at 25° C. Final volumes were 30 μL in 384 well black microtiter plates (Costar). Serial dilutions of UDP, 4d or 7 were added to the wells. Fluorescence polarization was analyzed using a Wallac EnVision plate reader. Data were fit to y=m1+((m2−m1)*x^m3)/(m4^m3+x^m3); m2=maximum FP signal, m1=minimum FP signal, m3=slope, m4=apparent binding constant (KaleidaGraph, Synergy Software). To determine Kd values, the apparent binding constant was then subjected to Kapp=Kd(1+(I)/KI), where I=concentration of the fluorescent probe and KI=binding affinity of the fluorescent probe to UGM. […] FIGS. 13A and 13B are graphs illustrating determination of Kd for compound II for UGMmyco (FIG. 13A) and UGMkleb (FIG. 13B).

A further experiment has as its system UGM. The experiment in a line: Fluorescence polarization assay, UGM homolog not specified (UGMkleb or UGMmyco). The class given is binding. The following applies: concentrations up to 34 μM of either UGMmyco or UGMkleb. In general terms: Fluorescence polarisation rises when a labelled molecule tumbles more slowly, as on binding a larger partner.
Experiment [3] has as its target T1, UGM from Mycobacterium tuberculosis (UGMmyco). The following applies: previous work; read-out: affinity of the probe for UGMmyco; cited from earlier work.
In experiment [4] the target is T2, UGM from Klebsiella pneumoniae (UGMkleb). The following applies: previous work; read-out: affinity of the probe for UGMkleb; cited from earlier work.
Setting [5] is: Kd (UMGmyco) [μM], Table 2, 50 mM sodium phosphate pH 7.0, 25° C.
Where [6] appears, read: Table 2, 50 mM sodium phosphate pH 7.0, 25° C., read-out: Kd (UMGkleb).
The mark [7] stands for this setting: Table 2, 50 mM sodium phosphate pH 7.0, 25° C., read-out: Kd (UMGmyco).
Where [8] appears, read: Kd (UMGkleb) [μM], Table 2, 50 mM sodium phosphate pH 7.0, 25° C.
[9] abbreviates: Table 1, UDP-fluorescein conjugates by linker length n, read-out: UGMmyco Kd.

Where two headings read alike, the source gives them in different places.

T2 sequence (Q48485 24-384): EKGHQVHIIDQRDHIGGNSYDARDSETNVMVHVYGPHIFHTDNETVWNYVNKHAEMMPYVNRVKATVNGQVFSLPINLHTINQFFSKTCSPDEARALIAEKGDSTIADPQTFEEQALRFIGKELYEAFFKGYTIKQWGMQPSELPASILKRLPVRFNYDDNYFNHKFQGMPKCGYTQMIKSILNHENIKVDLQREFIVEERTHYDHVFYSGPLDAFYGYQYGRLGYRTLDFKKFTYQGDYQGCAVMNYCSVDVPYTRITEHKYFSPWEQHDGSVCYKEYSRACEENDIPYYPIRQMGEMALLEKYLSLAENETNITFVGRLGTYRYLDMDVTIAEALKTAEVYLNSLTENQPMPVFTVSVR
T1 sequence (P9WIQ1 whole entry): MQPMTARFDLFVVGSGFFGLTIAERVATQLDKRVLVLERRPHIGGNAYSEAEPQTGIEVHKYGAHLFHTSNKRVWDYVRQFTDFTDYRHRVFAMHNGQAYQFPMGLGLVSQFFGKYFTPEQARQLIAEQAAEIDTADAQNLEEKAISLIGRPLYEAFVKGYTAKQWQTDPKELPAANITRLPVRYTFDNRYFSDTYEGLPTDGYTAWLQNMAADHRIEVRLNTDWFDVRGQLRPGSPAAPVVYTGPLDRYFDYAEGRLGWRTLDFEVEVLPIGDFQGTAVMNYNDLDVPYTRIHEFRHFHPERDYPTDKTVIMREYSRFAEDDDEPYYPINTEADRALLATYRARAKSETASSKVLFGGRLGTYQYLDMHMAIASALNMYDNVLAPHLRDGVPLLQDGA
UGMmyco, sequence (P9WIQ1 whole entry): as above

Consider `O=C(O)C(Cc1ccc(Cl)cc1)Nc1nc(-c2ccc(Cl)cc2Cl)cs1` (stereo not drawn), for which, at UGMmyco, the inhibitory constant (Ki) was found to be 5300 nM.

Take `O=C(O)c1cc(NC(=S)NCCOP(=O)(O)OP(=O)(O)OCC2OC(n3ccc(=O)[nH]c3=O)C(O)C2O)ccc1-c1c2ccc(=O)cc-2oc2cc(O)ccc12` (stereo not drawn) [Compound 5a, UDP-ethanolamine-fluorescein conjugate]: the Kd in experiment [1] (setting [5]) is more than 30 µM; in experiment [1] (UGMmyco Kd (μM), Table 1, UDP-fluorescein conjugates by linker length n) it was more than 30 µM; in experiment [2] (setting [6]) it was more than 30 µM.

Turning to `O=C(O)c1cc(NC(=S)NCCOCCOCCOP(=O)(O)OP(=O)(O)OCC2OC(n3ccc(=O)[nH]c3=O)C(O)C2O)ccc1-c1c2ccc(=O)cc-2oc2cc(O)ccc12` (stereo not drawn) [Compound 5f, UDP-3,6-dioxa-octanolamine-fluorescein conjugate], the figures for the Kd in experiment [1] (setting [5]) and in experiment [2] (setting [6]) were 0.575 ± 0.016 µM and 0.767 ± 0.017 µM, respectively. In addition, in experiment [1] (UGMmyco, relative to 5d (eight methylene linker)), the “fold lower affinity than compound 5d” value is “more than 10 fold”. Further, the “fold greater affinity than UDP” value in experiment [1] (UGMmyco, relative to UDP) was found to be 20 fold.

As for `O=C(O)c1cc(NC(=S)NCCOCCOCCOCCOP(=O)(O)OP(=O)(O)OCC2OC(n3ccc(=O)[nH]c3=O)C(O)C2O)ccc1-c1c2ccc(=O)cc-2oc2cc(O)ccc12` (stereo not drawn) [Compound 5g, UDP-3,6,9-trioxa-undecanolamine-fluorescein conjugate], the Kd in experiment [1] (setting [5]) was 1.07 ± 0.1 µM; in experiment [2] (setting [6]) it was 1.2 ± 0.14 µM.

With `O=C(O)c1cc(NC(=S)NCCCCCCCCO)ccc1-c1c2ccc(=O)cc-2oc2cc(O)ccc12` [Compound 6, Octanolamine-fluorescein conjugate], in the experiment with UGM, the “binding of fluorophore alone” value was “no binding was observed”. In addition, the Kd in experiment [1] (setting [7]) and in experiment [2] (setting [8]) was more than 30 µM throughout.

As to `O=c1ccn(C2OC(COP(=O)([O-])OP(=O)(O)OCCCCCCCCNC(=S)Nc3cccc4ccccc34)C(O)C2O)c(=O)[nH]1.[Na+]` (stereo not drawn) [Compound 7, UDP-octanolamine-naphthyl conjugate], the Kd in experiment [1] (setting [5]) came out at 0.61 ± 0.109 µM; in experiment [2] (setting [6]) it was 0.583 ± 0.036 µM.

Turning to `O=C(O)c1cc(NC(=S)NCCCCCCCCc2ccc(-c3csc(NC(Cc4ccc(Cl)cc4)C(=O)O)n3)cc2)ccc1-c1c2ccc(=O)cc-2oc2cc(O)ccc12` (stereo not drawn) [Compound 11, Aminothiazole-fluorescein conjugate], the Kd in experiment [1] (setting [7]) is 0.295 ± 0.066 µM; in experiment [1] (read-out: Kd / affinity for UGMmyco) it was 0.3 µM; in experiment [2] (setting [8]) it was 0.385 ± 0.035 µM; in experiment [2] (Kd / affinity for UGMkleb) it was 0.38 µM.

With `O=c1ccn([C@@H]2O[C@H](COP(=O)(O)OP(=O)(O)O)[C@@H](O)[C@H]2O)c(=O)[nH]1` [UDP, uridine 5′-diphosphate, reference compound], the Kd in experiment [1] (setting [5]) came out at 15.1 ± 1.7 µM; in experiment [1] (Kd / affinity for UGMmyco), 15 µM; in experiment [2] (setting [6]), 26 ± 1.7 µM; in experiment [2] (read-out: Kd / affinity for UGMkleb) it was 26 µM.

For “UDP-butanolamine-fluorescein conjugate [Compound 5b]”, the Kd amounted to 2.5 µM in experiment [1] (setting [9]), 2.51 ± 0.28 µM in experiment [1] (setting [7]) and 1.94 ± 0.15 µM in experiment [2] (setting [6]).

Take “UDP-decanolamine-fluorescein conjugate [Compound 5e]”: the Kd in experiment [1] (setting [9]) is 0.064 µM; in experiment [1] (setting [7]) it was 0.064 ± 0.004 µM; in experiment [2] (setting [6]) it was 0.07 ± 0.002 µM.

Consider “UDP-hexanolamine-fluorescein conjugate [Compound 5c]”, for which the Kd in experiment [3] is 160 nM; in experiment [1] (setting [9]), 0.17 µM; in experiment [1] (setting [7]), 0.166 ± 0.014 µM; in experiment [2] (setting [6]), 0.193 ± 0.011 µM; in experiment [4], 100 nM.

In the case of “UDP-octanolamine-fluorescein conjugate [Compound 5d]”, the Kd in experiment [1] (setting [9]) turned out to be 0.054 µM; in experiment [1] (setting [7]), 0.054 ± 0.006 µM; in experiment [2] (setting [6]) it was 0.045 ± 0.002 µM.

“Uridine 5′-diphosphooctanolamine, ammonium salt [Compound 4d]”: the Kd in experiment [1] (setting [7]) came to 32 ± 3.4 µM; in experiment [2] (setting [6]), 37.7 ± 1.5 µM.
